The test system of data set [1] is LNCap prostate tumor cells. The data set can be described thus: In vitro cytotoxicity, Alamar Blue assay, LNCaP cell kill in 72 hrs. The format is cell-based. The note with it: read-out: LNCaP Cell Kill in 72 HRS EC5O. The protocol: (§1) The cytotoxicities of the vinca alkaloid derivatives, prepared as described in Example 1, and the cleaveable oligopeptide-vinca drug conjugates, prepared as described in Examples 2 and 2A, against a line of cells which is known to be killed by unmodified vinca drug was assessed with an Alamar Blue assay. Specifically, cell cultures of LNCap prostate tumor cells, Colo320DM cells (also designated C320), T24 bladder carcinoma cells or T47D breast carcinoma cells in 96 well plates was diluted with medium containing various concentrations of a given conjugate (final plate well volume of 200 μl). The cells were incubated for 3 days at 37° C., 20 μl of Alamar Blue is added to the assay well. The cells were further incubated and the assay plates were read on a EL-310 ELISA reader at the dual wavelengths of 570 and 600 nm at 4 and 7 hours after addition of Alamar Blue. Relative percentage viability at the various concentration of conjugate tested was then calculated versus control (no cytotoxic agent or conjugate) cultures. Unless otherwise indicated, the TFA salt of the cytotoxic agent and the acetate salt of the conjugate were tested.

Data set [2] has as its system T24 bladder carcinoma cells. The data set can be described thus: In vitro cytotoxicity, Alamar Blue assay, T24 cells. The data set is classed as cell-based. The settings on record: read-out: Cell Kill in 72 HRS EC5O, T24. On the procedure:
as §1

Data set [3] concerns Colo320DM cells (also designated C320). The data set can be described thus: In vitro cytotoxicity, Alamar Blue assay, Colo320DM cells. The data set is classed as cell-based. The note with it: Table 5, value in parentheses, acetate salt unless otherwise indicated, read-out: Cell Kill in 72 HRS EC5O, Colo320DM. The protocol: as §1
For orientation: Resazurin is reduced to fluorescent resorufin, in cell work by metabolically active cells.

Data set [4] deals with T1, enzymatically active free PSA (Homo sapiens, UniProt P07288).
T1 construct: 50% cleavage of the noted oligopeptide-cytotoxic agent conjugates with enzymatically active free PSA; purchased York
The data set can be described thus: Recognition/cleavage of oligopeptide-vinca drug conjugates by free PSA (HPLC). The data set is classed as biochemical. The settings on record: pH 7.4; for Time to 50% Substrate Cleavage by York PSA: conjugate:PSA molar ratio 100 to 1, acetate salt unless otherwise indicated, n > 1 value is an average. The protocol: The conjugates prepared as described in Example 3 were individually dissolved in PSA digestion buffer (50 mM tris(hydroxymethyl)-aminomethane pH7.4, 140 mM NaCl) and the solution added to PSA at a molar ration of 100 to 1. Alternatively, the PSA digestion buffer utilized is 50 mM tris(hydroxymethyl)-aminomethane pH7.4, 140 mM NaCl. The reaction is quenched after various reaction times by the addition of trifluoroacetic acid (TFA) to a final 1% (volume/volume). Alternatively the reaction is quenched with 10 mM ZnCl2. The quenched reaction was analyzed by HPLC on a reversed-phase C18 column using an aqueous 0.1% TFA/acetonitrile gradient. […] Unless otherwise indicated, the acetate salt of the conjugate was tested.

Data set [5] in a line: Lability in mouse serum (remark in Table 5). The format is in vitro ADME. The note with it: remark in the Table 5 cell.
Setting [6] is: Table 5, 3 days, acetate salt of conjugate unless otherwise indicated.

Read-outs that look alike come from different tables or passages of the source. Square brackets hold non-standard residues; d marks the D form. HCAP = (1S,2R)-(+)-2-hydroxy-3-cyclohexylisopropylamine linker; dAc‑VIN = 4-des-acetylvinblastine; Chg = N[C@H](C(=O)O)C1CCCCC1; Abu = CC[C@H](N)C(=O)O; VIN = not defined here Some results are limits rather than exact numbers.

T1 sequence (P07288 25-261): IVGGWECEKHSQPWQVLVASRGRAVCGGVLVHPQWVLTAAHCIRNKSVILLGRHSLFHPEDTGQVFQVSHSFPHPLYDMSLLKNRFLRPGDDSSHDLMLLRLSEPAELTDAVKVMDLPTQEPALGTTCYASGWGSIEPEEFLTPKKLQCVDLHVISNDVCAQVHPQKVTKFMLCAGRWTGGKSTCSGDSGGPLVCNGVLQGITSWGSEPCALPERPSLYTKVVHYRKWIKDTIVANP

For the compound `CC[C@]1(O)C[C@@H]2CN(CCc3c([nH]c4ccccc34)[C@@](C(=O)OC)(c3cc4c(cc3OC)N(C)[C@H]3[C@@](O)(C(=O)OC)[C@H](OC(C)=O)[C@]5(CC)C=CCN6CC[C@]43[C@@H]65)C2)C1` [VINBLASTINE, vinblastine], the EC50 in data set [1] (Homo sapiens, 72 h, Table 3, 3 days, TFA salt of cytotoxic agent unless otherwise indicated) was 0.5 µM; in data set [2] (Homo sapiens, T-24, 72 h, Table 3, value in parentheses) it was less than 0.08 µM; in data set [2] (Table 5, value in parentheses) it was less than 0.08 µM.

Regarding “4-des-Acetylvinblastine-23-(N-Acetyl-4-trans-L-Hyp-Ser-Ser-Chg-Gln-Ser-HCAP) Amide Acetate Salt”, the EC50 in data set [1] (setting [6]) is 3.4 µM; in data set [3] it was 4.6 µM. Moreover, the “Time to 50% Substrate Cleavage by York PSA” value in data set [4] came to 15 min.

As for “Ac-SSChgQ-SP-(HCAP)-(dAc)-VIN (Ac-SS[Chg]QSP-{HCAP-dAc‑VIN}; not fully specified)”, the values for the EC50 in data set [1] (setting [6]) and in data set [3] were 10.2 µM and 29.5 µM, respectively. The “Time to 50% Substrate Cleavage by York PSA” value in data set [4] came out at 30 min.

In the case of “Ac-4-trans-L-HypSSChgQS-cyclohexylalaninol-(dAc)-VIN (XSSXQSX; non-natural residues; cyclised or stapled)”, the EC50 in data set [1] (setting [6]) was 0.3 µM; in data set [3], 2.6 µM. The “Time to 50% Substrate Cleavage by York PSA” value in data set [4] was determined as 10 min.

As for `CC[C@]1(O)CC2CN(CCc3c([nH]c4ccccc34)[C@@](C(=O)OC)(c3cc4c(cc3OC)N(C)C3C45CCN4CC=C[C@](CC)(C45)[C@@H](O)[C@]3(O)C(=O)N[C@H](COC(=O)[C@H](CO)NC(=O)[C@H](CCC(N)=O)NC(=O)[C@@H](NC(=O)[C@H](CO)NC(=O)[C@H](CO)NC(=O)[C@@H]3C[C@@H](O)CN3C(C)=O)C3CCCCC3)Cc3ccccc3)C2)C1` (some centres unmarked), in data set [4], the “Time to 50% Substrate Cleavage by York PSA” value was found to be 25 min. Besides, in data set [5], the “Stability in mouse serum” value is “labile”.

In the case of “4-des-Acetylvinblastine-23-(N-hydroxyacetyl-Abu-Ser-Ser-Chg-Gln-Ser-Pro-HCAP) amide (XSSXQSP; non-natural residues; cyclised or stapled)”, the EC50 in data set [1] (setting [6]) came out at 2 µM; in data set [3], 12.6 µM. In addition, in data set [4], the “Time to 50% Substrate Cleavage by York PSA” value worked out at 11 min.

In the case of “Ac-SChgQS-Abu-(HCAP)-VIN (Ac-S[Chg]QS[Abu]-{HCAP-VIN}; reading uncertain)”, the EC50 in data set [1] (setting [6]) is 0.8 µM; in data set [3] it was 2 µM. Also, the “Time to 50% Substrate Cleavage by York PSA” value in data set [4] stood at 60 min.

Consider “Ac-AbuSSChgQ-S-(HCAP)-VIN (Ac-[Abu]SS[Chg]QS-{HCAP-VIN}; reading uncertain)”, for which the EC50 worked out at 6.1 µM in data set [1] (setting [6]) and 7.8 µM in data set [3]. Also, the “Substrate cleavage by York PSA at 1 HOUR” value in data set [4] (1 hour, conjugate:PSA 100 to 1) is recorded as 28%.

With “Ac-4-trans-L-HypSSChgQSP(HCAP)-VIN (XSSXQSX; non-natural residues; cyclised or stapled)”, the EC50 in data set [1] (setting [6]) turned out to be 5.5 µM; in data set [3], 15.6 µM. Moreover, the “Time to 50% Substrate Cleavage by York PSA” value in data set [4] turned out to be 8 min.

The values are drawn from patent US20020103136A1, “Conjugates useful in the treatment of prostate cancer” (priority 1998, published 2002).
